Assay results published in patent US10420812B2, “Drug combinations and uses in treating a coughing condition” (Infirst Healthcare Limited, priority 2009, dated 2019).
Where “and” joins values, the source holds several entries; their conditions need not be identical. Identical values can stand only once.

Columns and labels:
[1] = system: citric acid induced cough responses; test: Citric acid induced cough, theobromine and decongestant (Example 5); type: in vivo, guinea pig
[2] = system: citric acid induced cough responses; test: Citric acid induced cough, oral and intratracheal theobromine (Example 2); conditions: 30 min prior
[3] = system: citric acid induced cough responses; test: Citric acid induced cough, theobromine and terpene (Example 10)
[4] = system: citric acid induced cough responses; test: Citric acid induced cough, theobromine and neuropathic pain agent (Example 9)
[5] = system: citric acid induced cough responses; test: Citric acid induced cough, theobromine and NSAID (Example 8)
[6] = system: citric acid induced cough responses; test: Citric acid induced cough, theobromine and ACE inhibitor (Example 11)
[7] = system: citric acid induced cough responses; test: Citric acid induced cough, theobromine and opiate antitussive agent (Example 4); type: in vivo, guinea pig
[8] = system: citric acid induced cough responses; test: Citric acid induced cough, theobromine and antihistamine (Example 6)
[9] = system: citric acid induced cough responses; test: Citric acid induced cough, theobromine and non-opiate antitussive agent (Example 3)
[10] = system: cough; conditions: clinical treatment; apparent success attributed to placebo effect (Ramsey et al.); cited from earlier work
[11] = system: citric acid induced cough; conditions: guinea-pigs (Minamizawa et al. 2006); cited from earlier work
[12] = system: citric acid induced cough responses; test: Citric acid induced cough, theobromine and expectorant (Example 7)
[13] = system: coughing condition; test: Treatment of a coughing condition, patient cases (Example 12); type: in vivo, human; conditions: person, after about 2 days
[14] = system: citric acid induced cough responses; test: Citric acid induced cough, oral theobromine (Example 1); type: in vivo, guinea pig; conditions: 120 min prior to citric acid exposure
[15] = codeine 25 mg/kg i.p., 30 min prior
[16] = ibuprofen 30 mg/kg p.o. only, 60 min prior
[17] = theobromine 10 mg/kg p.o., 120 min prior
[18] = theobromine 10 mg/kg p.o., 30 min prior
[19] = theobromine 30 mg/kg p.o., 120 min prior
[20] = theobromine 7 mg/kg p.o., 120 min prior
[21] = captopril 30 mg/kg p.o., 120 min prior
[22] = guaifenesin 30 mg/kg p.o., 60 min prior
[23] = gabapentin 60 mg/kg p.o. only, 60 min prior

COc1ccc2c3c1O[C@H]1[C@@H](O)C=C[C@H]4[C@@H](C2)N(C)CC[C@@]341 [codeine]
Cough Events Mean Number [1, 15]: 6 ± 1 coughs
Cough Events Mean Onset Time [1, 15]: 195 ± 25 s
Cough Events Mean Number ([2]; codeine 25 mg/kg i.p.): 5 ± 1 coughs
Cough Events Mean Onset Time ([2]; codeine 25 mg/kg i.p.): 337 ± 51 s
number of citric acid induced coughs [3, 15]: 6±2 coughs
onset time to the first cough [3, 15]: 170 ± 28 s
number of citric acid induced coughs [4, 15]: 9±4 coughs
onset time to the first cough [4, 15]: 161 ± 31 s
number of citric acid induced coughs [5, 15]: 8±3 coughs
onset time to the first cough [5, 15]: 150 ± 32 s
number of citric acid induced coughs [6, 15]: 7±3 coughs
onset time to the first cough [6, 15]: 170 ± 28 s
Cough Events Mean Number [7, 15]: 6 ± 1 coughs
Cough Events Mean Onset Time [7, 15]: 195 ± 33 s
Cough Events Mean Number [8, 15]: 5 ± 1 coughs
Cough Events Mean Onset Time [8, 15]: 236 ± 22 s
Cough Events Mean Number [9, 15]: 7 ± 2 coughs
Cough Events Mean Onset Time [9, 15]: 170 ± 32 s

CC(C)Cc1ccc(C(C)C(=O)O)cc1 (stereo not drawn) [Ibuprofen]
onset time to the first cough [5, 16]: 70 ± 5 s
total number of coughs [5, 16]: 22±6 coughs

COc1ccc2c(c1)[C@]13CCCC[C@@H]1[C@H](C2)N(C)CC3 [Dextromethorphan]
efficacy in treating cough [10]: no efficacy

CN[C@@H](C)[C@@H](O)c1ccccc1 [pseudoephedrine]
efficacy in the citric acid induced cough model [11]: very limited efficacy

Cn1cnc2c1c(=O)[nH]c(=O)n2C [theobromine, 3,7-dihydro-3,7-dimethyl-1H-purine-2,6-dione]
Cough Events Mean Number [1, 17]: 13 ± 3 coughs
Cough Events Mean Onset Time [1, 17]: 156 ± 15 s
Cough Events Mean Number ([2]; theobromine 3 mg/kg i.t.): 17 ± 2 coughs
Cough Events Mean Onset Time ([2]; theobromine 3 mg/kg i.t.): 115 ± 29 s
Cough Events Mean Number ([2]; theobromine 10 mg/kg i.t.): 10.3±2 coughs and 10 ± 2 coughs
Cough Events Mean Onset Time ([2]; theobromine 10 mg/kg i.t.): 134 ± 18 s
Cough Events Mean Number ([2]; theobromine 30 mg/kg i.t.): 6 ± 1 coughs
Cough Events Mean Onset Time ([2]; theobromine 30 mg/kg i.t.): 210 ± 22 s
Cough Events Mean Number ([2]; theobromine 30 mg/kg p.o.): 12 ± 2 coughs
Cough Events Mean Onset Time ([2]; theobromine 30 mg/kg p.o.): 126 ± 20 s
Cough Events Mean Number [12, 18]: 15 ± 3 coughs
Cough Events Mean Onset Time [12, 18]: 126 ± 12 s
number of citric acid induced coughs [3, 17]: 14±5 coughs
onset time to the first cough [3, 17]: 120 ± 23 s
number of citric acid induced coughs [4, 17]: 14±4 coughs
onset time to the first cough [4, 17]: 108 ± 19 s
number of citric acid induced coughs [5, 17]: 15±3 coughs
onset time to the first cough [5, 17]: 113 ± 15 s
number of citric acid induced coughs [6, 19]: 10±4 coughs
onset time to the first cough [6, 19]: 125 ± 22 s
coughing episodes as indicated by patient ([13]; cough as side-effect of ACE inhibitor medication, theobromine in conjunction with the ACE inhibitor): decreased coughing episodes
coughing episodes as indicated by patient ([13]; cough due to angiotensin II receptor antagonist medication, theobromine in conjunction with it): decreased coughing episodes
Cough Events Mean Number ([14]; theobromine 3 mg/kg p.o.): 25 ± 4 coughs
Cough Events Mean Onset Time ([14]; theobromine 3 mg/kg p.o.): 73 ± 17 s
Cough Events Mean Number ([14]; theobromine 7 mg/kg p.o.): 18 ± 3 coughs
Cough Events Mean Onset Time ([14]; theobromine 7 mg/kg p.o.): 98 ± 36 s
Cough Events Mean Number [7, 20]: 19 ± 3 coughs
Cough Events Mean Onset Time [7, 20]: 91 ± 13 s
Cough Events Mean Number [8, 17]: 15 ± 2 coughs
Cough Events Mean Onset Time [8, 17]: 103 ± 15 s
Cough Events Mean Number [9, 17]: 13 ± 2 coughs
Cough Events Mean Onset Time [9, 17]: 139 ± 22 s

C[C@H](CS)C(=O)N1CCC[C@H]1C(=O)O [captopril]
onset time to the first cough [6, 21]: 34 ± 12 s
total number of coughs [6, 21]: 45±12 coughs

COc1ccccc1OCC(O)CO (stereo not drawn) [guaifenesin]
Cough Events Mean Number [12, 22]: 28 ± 3 coughs
Cough Events Mean Onset Time [12, 22]: 52 ± 10 s

NCC1(CC(=O)O)CCCCC1 [Gabapentin]
onset time to the first cough [4, 23]: 90 ± 6 s
total number of coughs [4, 23]: 24±8 coughs
